For series [1], the system named is Staphylococcus aureus. Kind of series: Relative hydrolysis rate (RHR) was evaluated against Staphylococcus aureus with strain PC1. In kind it is ADME, organism-based.
Series [2] relates to Staphylococcus aureus. Kind of series: Compound was evaluated for the antibacterial activity against Staphylococcus aureus with strain beta-Lactamase-negative (LAC-). In kind it is functional.
The subject of series [3] is Staphylococcus aureus. Kind of series: Compound was evaluated for the antibacterial activity against Staphylococcus aureus with strain beta-Lactamase-positive (LAC+). The class given is functional.
For series [4], the system named is Escherichia coli. Kind of series: Compound was evaluated for the antibacterial activity against Escherichia coli with strain beta-Lactamase-negative (LAC-). The class given is functional.
In series [5] the test system is Escherichia coli. Description: Compound was evaluated for the antibacterial activity against Escherichia coli (RTEM+ organism). The class given is functional.
The test system of series [6] is Enterobacter cloacae. Description: Compound was evaluated for the antibacterial activity against Enterobacter cloacae with the strains beta-Lactamase-positive (LAC+). The class given is functional.
A further series deals with Providencia rettgeri. Kind of series: Compound was evaluated for the antibacterial activity against Providencia rettgeri with the strains beta-Lactamase-positive (LAC+). In kind it is functional.
Series [7] has as its system Escherichia coli. Kind of series: Compound was evaluated for the antibacterial activity against Escherichia coli with strain NIHJ (beta-Lactamase-negative (LAC-). The class given is functional.
The subject of series [8] is Escherichia coli. Description: Compound was evaluated for the antibacterial activity against Escherichia coli (RTEM+ organism). The class given is functional.
The subject of series [9] is Escherichia coli. Kind of series: Compound was evaluated for the antibacterial activity against Escherichia coli with strain JC-S (beta-Lactamase-negative (LAC-)). In kind it is functional.
In series [10] the test system is Enterobacter cloacae. Kind of series: Compound was evaluated for the antibacterial activity against Enterobacter cloacae with strain 233 (beta-Lactamase-positive (LAC+)). In kind it is functional.
Series [11] concerns Escherichia coli. Description: Compound was evaluated for the relative Vmax against Escherichia coli with strain 609 (beta-Lactamase-positive (LAC+)). In kind it is ADME, organism-based.
Series [12] relates to Escherichia coli. Description: Compound was evaluated for the antibacterial activity against Escherichia coli with strain 609 (beta-Lactamase-positive (LAC+)). In kind it is functional.
Series [13] has as its system Escherichia coli. Kind of series: Compound was evaluated for the antibacterial activity against Escherichia coli with strain NIHJ (beta-Lactamase-negative (LAC-)). The class given is functional.
Series [14] relates to Escherichia coli. Kind of series: Percentage zonal reduction was evaluated against Escherichia coli. The class given is functional.
Series [15] relates to Staphylococcus aureus. Description: Percentage zonal reduction was evaluated against Staphylococcus aureus. In kind it is functional.
Series [16] has as its system Escherichia coli. Description: Compound was evaluated for the antibacterial activity against Escherichia coli (RTEM+organism) at 10e4/10e6 colony forming units; 0.1/0.1. The class given is functional.
Series [17] concerns Klebsiella aerogenes. Description: Compound was evaluated for the antibacterial activity against Klebsiella aerogenes with strain K1- at 10e4/10e6 colony forming units; 0.05/0.1. The class given is functional.
Series [18] concerns Klebsiella aerogenes. Kind of series: Compound was evaluated for the antibacterial activity against Klebsiella aerogenes with strain K1+ at 10e4/10e6 colony forming units; 12.5/>100. In kind it is functional.
A short description of series [19]: Relative hydrolysis rate (RHR) was evaluated against K1 enzyme. The class given is ADME.
Series [20] in a line: Relative hydrolysis rate (RHR) was evaluated against RTEM enzyme. In kind it is ADME.
In series [21] the test system is Escherichia coli. Kind of series: Compound was evaluated for the antibacterial activity against Escherichia coli (RTEM-organism) at 10e4/10e6 colony forming units; <0.05/0.1. In kind it is functional.
Series [22] relates to Escherichia coli. Description: Compound was evaluated for the antibacterial activity against Escherichia coli (RTEM+organism) at 10e4/10e6 cfu; 6.3/>100. The class given is functional.
For series [23], the system named is Klebsiella aerogenes. Description: Compound was evaluated for the antibacterial activity against Klebsiella aerogenes with strain K1+ at 10e4/10e6 cfu; 100/>100. In kind it is functional.
The subject of series [24] is Klebsiella aerogenes. Kind of series: Compound was evaluated for the antibacterial activity against Klebsiella aerogenes with strain K1- at 10e4/10e6 cfu; 0.4/1.6. The class given is functional.
For series [25], the system named is Escherichia coli. Kind of series: Compound was evaluated for the antibacterial activity against Escherichia coli (RTEM-organism) at 10e4/10e6 cfu; 0.4/1.6. The class given is functional.
The nature of series [26]: Compound was evaluated for the percentage remaining after 24 hr hydrolysis at a pH 7 at 37 degree Centigrade. Conditions: buffer.
Series [27] is described as follows: Compound was evaluated for the relative Vmax against RTEM enzyme. In kind it is ADME.

≈ marks a conversion by molar mass, not a printed value.

As to `CC1[C@H](NC(=O)CSc2cc(Cl)nc(Cl)c2)C(=O)N1OS(=O)(=O)O` (single isomer, unassigned), in the series with Staphylococcus aureus [1], the RHR is 1. In addition, the MIC was determined as 0.1 µg/mL (≈ 0.24 µM) against Staphylococcus aureus [2] and 1.6 µg/mL (≈ 3.84 µM) in the series on Staphylococcus aureus [3].
In the case of `CC(=O)NCCSC1=C(C(=O)O)N2C(=O)[C@H]([C@@H](C)O)C2C1` (some centres not stated), the MIC in the series on Escherichia coli [4] and against Escherichia coli [5] was 6.2 µg/mL (≈ 19.7 µM) throughout.
For `Cn1nnnc1SCC1=C(C(=O)[O-])N2C(=O)[C@@H](NC(=O)[C@H](NC(N)=O)c3ccco3)C2SC1.[Na+]` (some centres not stated), the MIC against Enterobacter cloacae [6] is 25 µg/mL; in the series on Providencia rettgeri, 12.5 µg/mL.
For `Cn1nnnc1SCC1=C(C(=O)O)N2C(=O)[C@@H](NC(=O)CSCC#N)C2SC1` (some centres not stated), the values for the MIC in the series on Escherichia coli [7] and in the series with Escherichia coli [8] were 0.8 µg/mL (≈ 1.81 µM) and 12.5 µg/mL (≈ 28.3 µM), respectively.
With `Cn1nnnc1SCC1=C(C(=O)[O-])N2C(=O)[C@@H](NC(=O)[C@@H](NC(N)=O)c3ccco3)C2SC1.[Na+]` (some centres not stated), the results for the minimum inhibitory concentration (MIC) with Enterobacter cloacae [6] and against Providencia rettgeri were 0.6 µg/mL and 0.4 µg/mL, respectively.
Regarding `Cn1nnnc1SCC1=C(C(=O)O)N2C(=O)[C@@H](NC(=O)C(C(=O)O)c3ccc(O)cc3)C2OC1` (some centres not stated), the minimal inhibitory concentration (MIC) with Escherichia coli [8] was determined as 50 µg/mL (≈ 102 µM); in the series on Escherichia coli [9], 0.2 µg/mL (≈ 0.408 µM); with Enterobacter cloacae [10], 0.4 µg/mL (≈ 0.816 µM).
On to `CO[C@@]1(NC(=O)CSCC#N)C(=O)N2C(C(=O)[O-])=C(CSc3nnnn3C)CS[C@@H]21.[Na+]` [CEFMETAZOLE SODIUM], for which the minimal inhibitory concentration (MIC) with Escherichia coli [7] and in the series with Escherichia coli [8] was 0.8 µg/mL throughout.
In the case of `NCCSC1=C(C(=O)O)N2C(=O)[C@H](CO)C2S1` (some centres not stated), the RVmax with Escherichia coli [11] is given as < 0.1. Besides, the minimal inhibitory concentration (MIC) against Escherichia coli [12] stood at 3.1 µg/mL (≈ 11.2 µM); in the series with Escherichia coli [13], 1.5 µg/mL (≈ 5.43 µM).
In the same order, the values of `CC(O)[C@H]1C(=O)N2C(C(=O)O)=C(SCCN)SC12` (some centres not stated) are < 0.1, 1.5 µg/mL (≈ 5.17 µM) and 0.8 µg/mL (≈ 2.76 µM).
Consider `CC(=O)NCCSC1=C(C(=O)O)N2C(=O)[C@H]([C@H](C)O)C2C1` (some centres not stated), for which the minimum inhibitory concentration (MIC) in the series on Escherichia coli [4] and in the series with Escherichia coli [5] was 0.8 µg/mL (≈ 2.54 µM) in each case.
`CC(=O)NCCSC1=C(C(=O)O)N2C(=O)[C@@H](C(C)OS(=O)(=O)[O-])C2C1.[K+]` (some centres not stated): the minimal inhibitory concentration (MIC) against Escherichia coli [4] was 0.2 µg/mL; in the series with Escherichia coli [5], 1.6 µg/mL.
With `CO[C@@]1(NC(=O)Cc2ccc(O)cc2)C(=O)N2C(C(=O)O)=C(CSc3nnnn3C)COC21` (some centres not stated), the MIC in the series with Escherichia coli [8] amounted to 0.8 µg/mL (≈ 1.68 µM); against Escherichia coli [9] it was 0.1 µg/mL (≈ 0.21 µM); against Enterobacter cloacae [10], 100 µg/mL (≈ 210 µM).
In the case of `CCO[C@@]1(NC(=O)CSCC#N)C(=O)N2C(C(=O)O)=C(CSc3nnnn3C)CSC21` (some centres not stated), the minimum inhibitory concentration (MIC) against Escherichia coli [7] and in the series on Escherichia coli [8] was 50 µg/mL (≈ 103 µM) each time.
In the case of `CC1=C(C(=O)O)N2C(=O)[C@@H](NC(=O)[C@H](N)c3ccccc3)[C@H]2SC1` [CEPHALEXIN ANHYDROUS], the Zone reduction was found to be 27% with Escherichia coli [14] and 48% with Staphylococcus aureus [15].
Turning to `CO/N=C(/C(=O)N[C@@H]1C(=O)N(S(=O)(=O)[O-])[C@@H]1C)c1csc(N)n1.[K+]`, the minimal inhibitory concentration (MIC) in the series on Escherichia coli [16] was 0.1 µg/mL; against Klebsiella aerogenes [17], 0.05 µg/mL; with Klebsiella aerogenes [18], 12.5 µg/mL; against Escherichia coli [21], < 0.05 µg/mL. Besides, the RHR is recorded as 6.4 in series [19] and 0.3 in [20].
For `Cn1nnnc1SCC1=C(C(=O)O)N2C(=O)[C@@H](NC(=O)Cc3ccc(O)cc3)C2OC1` (some centres not stated), the MIC in the series with Escherichia coli [8] is > 100 µg/mL; against Escherichia coli [9], 0.8 µg/mL (≈ 1.79 µM); with Enterobacter cloacae [10], > 100 µg/mL.
`CO/N=C(/C(=O)N[C@H]1CN(S(=O)(=O)[O-])C1=O)c1csc(N)n1.[K+]`: the minimal inhibitory concentration (MIC) in the series with Escherichia coli [22] worked out at 6.3 µg/mL; in the series with Klebsiella aerogenes [23], 100 µg/mL; against Klebsiella aerogenes [24], 0.4 µg/mL; with Escherichia coli [25], 0.4 µg/mL. Besides, the RHR in [19] amounted to 106; in series [20] it was 12.
`CC(=O)N[C@H]1CN(S(=O)(=O)[O-])C1=O.[K+]`: the fraction remaining at 24 h in series [26] was > 80%. The compound further registered an RVmax in series [27] of 12.
`CC(=O)NCCSC1=C(C(=O)O)N2C(=O)[C@@H](C(C)O)C2C1` (some centres not stated): the MIC against Escherichia coli [4] worked out at 0.2 µg/mL (≈ 0.636 µM); against Escherichia coli [5] it was 25 µg/mL (≈ 79.5 µM).
On to `NCCSC1=C(C(=O)O)N2C(=O)CC2S1` (configuration not stated), for which the RVmax in the series with Escherichia coli [11] is 75. Also, the values for the MIC with Escherichia coli [12] and against Escherichia coli [13] were 50 µg/mL (≈ 203 µM) and 0.8 µg/mL (≈ 3.25 µM), respectively.
The compound `Cn1nnnc1SCC1=C(C(=O)O)N2C(=O)C(NC(=O)C(C(=O)O)c3ccc(O)cc3)C2OC1` (configuration not stated) registered an MIC against Escherichia coli [13] of 0.2 µg/mL (≈ 0.408 µM). Further, in [20], the RHR was 19.

These data come from ChEMBL document CHEMBL1122575, “Dependence of beta-lactamase stability on substructures within beta-lactam antibiotics” (J Med Chem, 1984).
